Assay results: patent US12686673B2 (Blueprint Medicines Corporation, priority 2020, dated 2026)
Structures can show the parent of a compound that is named as a salt.

What was measured:
Assay type in all cases: cell-based
[1] = target: EGFR(D770_N771insSVD) expressing Ba/F3 stable cell line (Homo sapiens, UniProt P00533, DUP768-770, cells depend on it); test: Cellular proliferation (Alamar Blue) assay, EGFR D770_N771insSVD Ba/F3; conditions: 72 hr, read-out: D770 IC50
Method in brief: (§1)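 72 hr Ba/F3 viability assay; cells in RPMI/10% FBS, compound dilutions down from 10 μM final, Alamar Blue detection.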

[2] = target: EGFR (A767_dupASV) expressing Ba/F3 stable cell line (Homo sapiens, UniProt P00533, DUP767-769, cells depend on it); test: Cellular proliferation (Alamar Blue) assay, EGFR A767_dupASV Ba/F3; conditions: 72 hr, read-out: A767 IC50
Sequence of EGFR (A767_dupASV) expressing Ba/F3 stable cell line (P00533 with tags, fused parts or gaps DUP767-769): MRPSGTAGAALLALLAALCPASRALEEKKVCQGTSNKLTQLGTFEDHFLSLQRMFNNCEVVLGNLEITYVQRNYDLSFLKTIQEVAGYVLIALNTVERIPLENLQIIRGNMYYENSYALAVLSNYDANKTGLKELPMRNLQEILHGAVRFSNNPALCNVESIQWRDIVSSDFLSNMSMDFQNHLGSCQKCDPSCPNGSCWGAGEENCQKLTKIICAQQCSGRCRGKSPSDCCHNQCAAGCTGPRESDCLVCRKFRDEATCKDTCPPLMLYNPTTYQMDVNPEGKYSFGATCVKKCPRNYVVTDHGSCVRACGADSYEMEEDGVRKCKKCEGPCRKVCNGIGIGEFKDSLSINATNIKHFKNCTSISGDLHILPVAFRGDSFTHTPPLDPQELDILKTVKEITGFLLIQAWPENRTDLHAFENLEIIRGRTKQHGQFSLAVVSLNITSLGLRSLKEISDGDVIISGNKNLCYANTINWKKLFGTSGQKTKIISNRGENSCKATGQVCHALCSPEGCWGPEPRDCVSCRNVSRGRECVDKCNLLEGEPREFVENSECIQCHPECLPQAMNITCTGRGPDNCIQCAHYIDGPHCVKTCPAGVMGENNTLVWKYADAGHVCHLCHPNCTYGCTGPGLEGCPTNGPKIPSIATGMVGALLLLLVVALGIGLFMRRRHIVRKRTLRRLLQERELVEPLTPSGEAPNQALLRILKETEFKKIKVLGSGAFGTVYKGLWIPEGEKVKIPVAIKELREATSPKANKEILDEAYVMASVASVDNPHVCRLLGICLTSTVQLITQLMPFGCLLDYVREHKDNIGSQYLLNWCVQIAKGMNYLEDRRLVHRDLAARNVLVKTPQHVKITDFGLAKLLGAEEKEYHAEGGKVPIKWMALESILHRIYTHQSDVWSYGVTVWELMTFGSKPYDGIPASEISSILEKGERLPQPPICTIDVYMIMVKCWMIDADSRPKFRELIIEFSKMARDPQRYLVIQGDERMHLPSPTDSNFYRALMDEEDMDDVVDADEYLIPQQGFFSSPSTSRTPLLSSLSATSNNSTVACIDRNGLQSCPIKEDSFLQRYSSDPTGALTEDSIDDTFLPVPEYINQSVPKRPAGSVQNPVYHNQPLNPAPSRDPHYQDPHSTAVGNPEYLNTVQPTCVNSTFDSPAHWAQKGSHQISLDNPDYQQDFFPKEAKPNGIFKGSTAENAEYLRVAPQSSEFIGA
Method in brief: as §1

A431 cells = test: Cellular proliferation (Alamar Blue) assay, A431; conditions: Homo sapiens, A-431; A431 cells, Alamar Blue, 72 hr; read-out: A431 IC50
[3] = target: HER2 (A775_G776insYVMA) expressing Ba/F3 stable cell line (Homo sapiens, UniProt P04626, DUP772-775, cells depend on it); test: Cellular proliferation (Alamar Blue) assay, HER2 A775_G776insYVMA Ba/F3; conditions: 72 hr, read-out: YVMA IC50
Sequence of HER2 (A775_G776insYVMA) expressing Ba/F3 stable cell line (P04626 with tags, fused parts or gaps DUP772-775): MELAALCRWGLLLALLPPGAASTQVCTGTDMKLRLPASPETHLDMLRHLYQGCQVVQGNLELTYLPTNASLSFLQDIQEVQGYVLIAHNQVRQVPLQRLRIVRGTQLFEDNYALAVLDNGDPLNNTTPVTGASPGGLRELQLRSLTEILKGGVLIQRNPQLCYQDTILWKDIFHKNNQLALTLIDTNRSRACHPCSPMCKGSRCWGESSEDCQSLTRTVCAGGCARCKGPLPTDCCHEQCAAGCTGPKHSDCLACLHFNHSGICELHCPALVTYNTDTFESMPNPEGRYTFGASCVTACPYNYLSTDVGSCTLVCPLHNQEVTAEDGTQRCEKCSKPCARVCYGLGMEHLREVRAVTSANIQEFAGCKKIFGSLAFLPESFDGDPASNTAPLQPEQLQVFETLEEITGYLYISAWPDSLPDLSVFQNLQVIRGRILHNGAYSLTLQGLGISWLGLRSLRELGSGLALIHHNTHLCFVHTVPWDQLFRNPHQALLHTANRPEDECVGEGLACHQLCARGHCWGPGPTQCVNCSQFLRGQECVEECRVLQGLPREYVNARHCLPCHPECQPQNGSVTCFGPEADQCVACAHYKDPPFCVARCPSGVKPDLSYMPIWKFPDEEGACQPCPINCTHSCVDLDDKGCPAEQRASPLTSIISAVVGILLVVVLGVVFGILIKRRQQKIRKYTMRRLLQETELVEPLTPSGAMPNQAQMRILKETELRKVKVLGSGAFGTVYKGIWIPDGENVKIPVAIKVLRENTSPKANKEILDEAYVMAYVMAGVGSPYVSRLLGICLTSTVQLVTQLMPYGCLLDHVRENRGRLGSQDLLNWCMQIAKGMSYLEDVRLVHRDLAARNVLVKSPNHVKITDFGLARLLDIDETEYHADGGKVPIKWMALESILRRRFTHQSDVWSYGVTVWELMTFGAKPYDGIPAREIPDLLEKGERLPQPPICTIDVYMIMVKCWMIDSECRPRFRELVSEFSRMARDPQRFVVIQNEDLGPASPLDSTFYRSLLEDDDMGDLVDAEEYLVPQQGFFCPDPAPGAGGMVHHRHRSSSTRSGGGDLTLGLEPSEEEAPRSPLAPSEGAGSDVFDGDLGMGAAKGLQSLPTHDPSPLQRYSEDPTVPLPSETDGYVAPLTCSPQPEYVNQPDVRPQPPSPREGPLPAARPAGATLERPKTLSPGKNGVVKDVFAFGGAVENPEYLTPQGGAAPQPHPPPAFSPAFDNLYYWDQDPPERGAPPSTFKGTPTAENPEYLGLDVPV
Method in brief: as §1

Sequence of EGFR(D770_N771insSVD) expressing Ba/F3 stable cell line (P00533 with tags, fused parts or gaps DUP768-770): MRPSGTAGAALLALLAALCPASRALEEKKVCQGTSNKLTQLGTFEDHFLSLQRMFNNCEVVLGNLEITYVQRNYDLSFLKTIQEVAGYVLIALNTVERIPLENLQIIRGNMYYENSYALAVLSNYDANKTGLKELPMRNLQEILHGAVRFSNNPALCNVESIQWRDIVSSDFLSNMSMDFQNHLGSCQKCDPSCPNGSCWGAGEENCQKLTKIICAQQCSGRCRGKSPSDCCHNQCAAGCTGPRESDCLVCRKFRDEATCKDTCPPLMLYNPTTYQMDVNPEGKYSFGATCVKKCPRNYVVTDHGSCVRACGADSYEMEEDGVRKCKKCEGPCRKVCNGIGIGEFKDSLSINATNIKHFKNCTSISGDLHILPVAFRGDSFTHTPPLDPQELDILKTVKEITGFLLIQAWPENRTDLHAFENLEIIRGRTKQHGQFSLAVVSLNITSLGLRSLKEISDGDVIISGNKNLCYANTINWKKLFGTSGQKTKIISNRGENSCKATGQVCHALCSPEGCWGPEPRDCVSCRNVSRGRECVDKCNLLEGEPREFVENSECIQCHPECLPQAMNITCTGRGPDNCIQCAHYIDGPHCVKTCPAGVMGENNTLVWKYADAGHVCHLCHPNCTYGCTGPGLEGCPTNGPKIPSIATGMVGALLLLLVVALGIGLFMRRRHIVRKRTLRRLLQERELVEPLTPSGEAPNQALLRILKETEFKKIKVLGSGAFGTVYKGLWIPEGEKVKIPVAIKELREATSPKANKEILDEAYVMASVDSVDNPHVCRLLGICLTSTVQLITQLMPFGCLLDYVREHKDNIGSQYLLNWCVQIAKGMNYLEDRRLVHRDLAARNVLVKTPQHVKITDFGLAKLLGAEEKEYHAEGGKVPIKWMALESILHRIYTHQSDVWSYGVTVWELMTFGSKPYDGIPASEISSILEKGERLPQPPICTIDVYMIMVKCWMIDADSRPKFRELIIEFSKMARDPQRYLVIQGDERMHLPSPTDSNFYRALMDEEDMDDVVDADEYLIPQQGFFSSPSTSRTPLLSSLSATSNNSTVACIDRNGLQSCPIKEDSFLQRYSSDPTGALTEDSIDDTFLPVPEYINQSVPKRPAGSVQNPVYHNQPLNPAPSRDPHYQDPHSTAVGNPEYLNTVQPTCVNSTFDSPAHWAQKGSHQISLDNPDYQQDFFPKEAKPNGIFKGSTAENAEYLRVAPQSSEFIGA

SMILES	GI50 [1]	GI50 [2]	IC50 (A431 cells)	GI50 [3]
C=CC(=O)Nc1ccc(F)c(Nc2nc(Nc3cnn(C)c3)ncc2-c2ccc(C#N)cc2)c1 [Compound 62, N-(3-((5-(4-cyanophenyl)-2-((1-methyl-1H-pyrazol-4-yl)amino)pyrimidin-4-yl)amino)-4-fluorophenyl)acrylamide]	323 nM	307 nM	> 10000 nM	2590 nM
C=CC(=O)Nc1ccc(F)c(Nc2nc(Nc3cnn(C)c3)ncc2-c2ccc(C(C)(C)C)cc2)c1 [Compound 76, N-(3-((5-(4-(tert-butyl)phenyl)-2-((1-methyl-1H-pyrazol-4-yl)amino)pyrimidin-4-yl)amino)-4-fluorophenyl)acrylamide trifluoroacetate]	265 nM	308 nM	156 nM	3150 nM
C=CC(=O)Nc1ccc(F)c(Nc2nc(Nc3cnn(C)c3)ncc2-c2ccc3c(ccn3C)c2)c1 [Compound 77, N-(4-fluoro-3-((5-(1-methyl-1H-indol-5-yl)-2-((1-methyl-1H-pyrazol-4-yl)amino)pyrimidin-4-yl)amino)phenyl)acrylamide trifluoroacetate]	299 nM	774 nM	1030 nM	2750 nM
C=CC(=O)Nc1ccc(F)c(Nc2nc(Nc3cnn(C)c3)ncc2-c2cccnc2OC)c1 [Compound 79, N-(4-fluoro-3-((5-(2-methoxypyridin-3-yl)-2-((1-methyl-1H-pyrazol-4-yl)amino)pyrimidin-4-yl)amino)phenyl)acrylamide]	934 nM	887 nM	> 10000 nM	896 nM
C=CC(=O)Nc1ccc(F)c(Nc2nc(Nc3cnn(C)c3)ncc2-c2ccc(OC)nc2)c1 [Compound 86, N-(4-fluoro-3-((5-(6-methoxypyridin-3-yl)-2-((1-methyl-1H-pyrazol-4-yl)amino)pyrimidin-4-yl)amino)phenyl)acrylamide]	36 nM	39 nM	49 nM	185 nM
C=CC(=O)Nc1ccc(F)c(Nc2nc(Nc3cnn(C)c3)ncc2-c2cccc(OC(F)(F)F)c2)c1 [Compound 96, N-(4-fluoro-3-((2-((1-methyl-1H-pyrazol-4-yl)amino)-5-(3-(trifluoromethoxy)phenyl)pyrimidin-4-yl)amino)phenyl)acrylamide trifluoroacetate]	345 nM	790 nM	1080 nM	7730 nM
C=CC(=O)Nc1ccc(F)c(Nc2nc(Nc3cnn(C)c3)ncc2-c2ccc3[nH]ccc3c2)c1 [Compound 97, N-(4-fluoro-3-{[5-(1H-indol-5-yl)-2-[(1-methyl-1H-pyrazol-4-yl)amino]pyrimidin-4-yl]amino}phenyl)prop-2-enamide]	546 nM	862 nM	586 nM	403 nM
C=CC(=O)Nc1ccc(F)c(Nc2nc(Nc3cnn(C)c3)ncc2-c2ccc(-c3ccccc3)cc2)c1 [Compound 127, N-(3-((5-([1,1′-biphenyl]-4-yl)-2-((1-methyl-1H-pyrazol-4-yl)amino)pyrimidin-4-yl)amino)-4-fluorophenyl)acrylamide]	971 nM	565 nM	258 nM	5280 nM
C=CC(=O)Nc1ccc(F)c(Nc2nc(Nc3cnn(C)c3)ncc2-c2ccc(C3CC3)cc2)c1 [Compound 128, N-(3-((5-(4-cyclopropylphenyl)-2-((1-methyl-1H-pyrazol-4-yl)amino)pyrimidin-4-yl)amino)-4-fluorophenyl)acrylamide trifluoroacetate]	101 nM	114 nM	64 nM	654 nM
C=CC(=O)Nc1ccc(F)c(Nc2nc(Nc3cnn(C)c3)ncc2-c2ccc(CC(F)(F)F)cc2)c1 [Compound 130, N-(4-fluoro-3-((2-((1-methyl-1H-pyrazol-4-yl)amino)-5-(4-(2,2,2-trifluoroethyl)phenyl)pyrimidin-4-yl)amino)phenyl)acrylamide trifluoroacetate]	26 nM	27 nM	8 nM	83 nM
C=CC(=O)Nc1ccc(F)c(Nc2nc(Nc3cnn(C)c3)ncc2-c2ccc3cccnc3c2)c1 [Compound 131, N-(4-fluoro-3-((2-((1-methyl-1H-pyrazol-4-yl)amino)-5-(quinolin-7-yl)pyrimidin-4-yl)amino)phenyl)acrylamide]	202 nM	758 nM	365 nM	348 nM
C=CC(=O)Nc1ccc(F)c(Nc2nc(Nc3cnn(C)c3)ncc2-c2ccn3ccnc3c2)c1 [Compound 132, N-(4-fluoro-3-((5-(imidazo[1,2-a]pyridin-7-yl)-2-((1-methyl-1H-pyrazol-4-yl)amino)pyrimidin-4-yl)amino)phenyl)acrylamide]	203 nM	368 nM	504 nM	151 nM

Second part, the compound after the results:

GI50 [1]	GI50 [2]	IC50 (A431 cells)	GI50 [3]	SMILES
106 nM	299 nM	40 nM	412 nM	C=CC(=O)Nc1ccc(F)c(Nc2nc(Nc3cnn(C)c3)ncc2-c2cccc3ccccc23)c1 [Compound 136, N-(4-fluoro-3-((2-((1-methyl-1H-pyrazol-4-yl)amino)-5-(naphthalen-1-yl)pyrimidin-4-yl)amino)phenyl)acrylamide trifluoroacetate]
254 nM	325 nM	> 10000 nM	751 nM	C=CC(=O)Nc1ccc(F)c(Nc2nc(Nc3cnn(C)c3)ncc2-c2ccncc2)c1 [Compound 137, N-(4-fluoro-3-((2-((1-methyl-1H-pyrazol-4-yl)amino)-5-(pyridin-4-yl)pyrimidin-4-yl)amino)phenyl)acrylamide]
342 nM	279 nM	274 nM	6130 nM	C=CC(=O)Nc1ccc(F)c(Nc2nc(Nc3cn(C)nc3C(F)(F)F)ncc2-c2ccc(C(F)(F)F)cc2)c1 [Compound 146, N-(4-fluoro-3-((2-((1-methyl-3-(trifluoromethyl)-1H-pyrazol-4-yl)amino)-5-(4-(trifluoromethyl)phenyl)pyrimidin-4-yl)amino)phenyl)acrylamide trifluoroacetate]
308 nM	747 nM	469 nM	501 nM	C=CC(=O)Nc1ccc(F)c(Nc2nc(Nc3cnn(C)c3)ncc2-c2ccc3ccccc3c2)c1 [Compound 149, N-(4-fluoro-3-((2-((1-methyl-1H-pyrazol-4-yl)amino)-5-(naphthalen-2-yl)pyrimidin-4-yl)amino)phenyl)acrylamide trifluoroacetate]
1890 nM	2440 nM	8020 nM	1520 nM	C=CC(=O)Nc1cccc(Nc2nc(Nc3cnn(C)c3)nnc2Cl)c1 [Compound 156, N-(3-((6-chloro-3-((1-methyl-1H-pyrazol-4-yl)amino)-1,2,4-triazin-5-yl)amino)phenyl)acrylamide]
> 10000 nM	> 10000 nM	> 10000 nM	3660 nM	C=CC(=O)Nc1cccc(Oc2nc(Nc3cnn(C)c3)nnc2Cl)c1 [Compound 157, N-(3-((6-chloro-3-((1-methyl-1H-pyrazol-4-yl)amino)-1,2,4-triazin-5-yl)oxy)phenyl)acrylamide]
> 10000 nM	> 10000 nM	> 10000 nM	> 10000 nM	C=CC(=O)Nc1cccc(Oc2nc(Nc3cnn(C)c3)cnc2C)c1 [Compound 158, N-(3-((3-methyl-6-((1-methyl-1H-pyrazol-4-yl)amino)pyrazin-2-yl)oxy)phenyl)acrylamide]
